Measurements from patent US20100003217A1, “Compounds and Pharmaceutical Compositions for the Treatment of Viral Infections” (priority 2008, published 2010).

Key:
[1] = Metabolite profiling in rat liver microsomes; type: in vitro ADME; design: key: +: peak detected; ?: peak observed; ND: not detected; details: 50 μM Compound 1, 2 hours
Experimental: Preliminary identification of putative metabolites was conducted by comparing the retention time of observed metabolites with retention times obtained with chemically synthesized standards using the following HPLC-UV method:
Incubations with liver microsomes, liver cytosol or pig liver esterase were conducted in a final volume of 0.1 mL per incubation time point. Pooled microsomal protein (1.0 mg/mL) suspended in incubation buffer (0.1 M potassium phosphate, pH 7.4) was incubated for 2 hours at 37° C. with 50 μM Compound 1 from a stock solution in DMSO (final DMSO concentration was 0.1%); the microsomal reaction was initiated by the addition of an NADPH regenerating system (1.3 mM NADP^+, 3.3 mM glucose-6-phosphate, 0.4 U/ml glucose-6-phosphate dehydrogenase, and 3.3 mM MgCl2, final concentrations). Incubations with no NADPH or no protein served as controls. Reactions were terminated by the addition of 0.1 mL of stop solution (acetonitrile). The samples were vortex-mixed for 30 sec and then centrifuged at 10,000×g for 10 min. The supernatant was dried using a Labconco CentriVap concentrator and the dry residue reconstituted in water, transferred to an HPLC glass vial and analyzed by HPLC-UV method 2 (described above).
Results: Preliminary identification was accomplished by comparing LC elution of metabolites with that of available synthetic standards of putative metabolites (FIG. 2). […]

CYP2D6 = CYP2D6 (Homo sapiens, UniProt P10635); experiment: Incubation with human recombinant CYP450 supersomes, 2D6; type: in vitro ADME; details: CYP450 2D6 supersomes, 60 min, 10 μM, average of two experiments
Experimental: Supersomes—Incubations were conducted in a final volume of 0.1 mL reaction buffer (50-100 mM potassium phosphate, pH 7.4 or 100 mM Tris-HCL, pH 7.4) according to protocol provided with each CYP450 supersome. Each reaction contained […] of CYP450 supersome, 1.3 mM NADP^+, 3.3 mM glucose-6-phosphate, 0.4 U/mL glucose-6-phosphate dehydrogenase, 3.3 mM MgCl2 and 10 μM Compound 1. Following incubation for 60 min at 37° C., 100 μL of stop solution (acetonitrile:methanol; 1:1) was added and samples centrifuged for 10 min at 10,000×g. The supernatant was then dried and reconstituted in 10 mM potassium phosphate, pH 5, further transferred to an HPLC glass vial and analyzed by HPLC-UV (described above).

[2] = Metabolite profile in rat plasma; type: in vivo, male Sprague-Dawley rats; details: rat terminal plasma, IV (2, 6, 24 h) and PO (6 h)
Experimental: Pooled terminal rat plasma samples were prepared for Group 1A, Group 1C, and Groups 2A-C. The pools were prepared by combining 1 mL of plasma from each of the four animals. Subsamples (2 mL each) of the pooled samples were transferred to 15-mL conical centrifuge tubes for extraction. To each subsample, 6 mL of methanol were added and each mixture was vortexed vigorously and then centrifuged at 5700×g for 15 minutes. The supernatant (extract 1) was transferred to a 15-mL tube. The pellets were further extracted with methanol (2 mL). Each sample was vortexed thoroughly to ensure mixing. The samples were centrifuged as described above. The supernatant (extract 2) was removed. The total volume of each extract was recorded. […] All extracts and reconstituted extracts were analyzed by LSC. Reconstituted extracts containing sufficient radioactivity were analyzed by HPLC.
Terminal plasma samples were pooled, extracted and prepared for HPLC analysis as described above. For Group 1, terminal plasma samples (2, 6, and 24 h) were pooled and analyzed by HPLC as described above. For Group 2, only the 6-h sample had sufficient radioactivity for analysis. […]

[3] = In vitro intracellular half-life of 2′-C-methyl guanosine-5′-triphosphate (Compound 7) in rat primary hepatocytes; type: in vitro ADME; details: primary hepatocytes (cellular extracts)
Experimental: (§1) Primary hepatocytes were incubated with 10 μM [^14C]-Compound 1 ([…]) or [^14C]-2′-C-methyl guanosine (127 DPM/μmol) for 24 hours at which time the incubation medium was removed and the cell monolayer carefully washed two times with warm (37° C.) PBS and placed back in culture with drug-free medium. At selected times up to 24 hours, the medium was removed and the cell monolayers carefully washed two times with ice-cold PBS. Following the last wash, all PBS was carefully removed and the cell monolayers processed and extracted as previously described. […]

rat primary hepatocytes = experiment: as above; type: in vitro ADME; details: for Decay of Compound 7: level in cellular extracts: rat hepatocytes Rs458, after 24 h incubation with 10 μM [^14C]-Compound 1
Experimental: as §1

[4] = rat hepatocytes, [^14C]-Compound 1 removed

Sequence of CYP2D6 (P10635 whole entry): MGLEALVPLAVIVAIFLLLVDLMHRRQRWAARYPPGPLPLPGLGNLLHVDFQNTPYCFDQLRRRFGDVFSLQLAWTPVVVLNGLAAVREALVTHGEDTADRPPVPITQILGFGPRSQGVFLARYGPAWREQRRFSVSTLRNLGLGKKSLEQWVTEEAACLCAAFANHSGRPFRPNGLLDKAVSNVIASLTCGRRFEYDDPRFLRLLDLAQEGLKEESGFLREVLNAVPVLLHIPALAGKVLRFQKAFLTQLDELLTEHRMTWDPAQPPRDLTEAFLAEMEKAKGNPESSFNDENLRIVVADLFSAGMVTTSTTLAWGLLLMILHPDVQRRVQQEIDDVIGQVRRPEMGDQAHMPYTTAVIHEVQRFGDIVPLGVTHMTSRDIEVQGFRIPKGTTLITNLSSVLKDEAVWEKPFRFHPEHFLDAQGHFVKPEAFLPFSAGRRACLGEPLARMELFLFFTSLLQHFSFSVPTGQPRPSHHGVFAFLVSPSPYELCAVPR

Plasma metabolites detected [2] | half-life at 10 μM ([3]; rat hepatocytes Rs458, after 24 h incubation with 10 μM [^14C]-Compound 1, linear regression) | half-life at 10 μM ([3]; rat hepatocytes, following [^14C]-Compound 1) | Decay of Compound 7: level in cellular extracts (rat primary hepatocytes; decay time 0 h) | Decay of Compound 7: level in cellular extracts (rat primary hepatocytes; decay time 1 h) | Decay of Compound 7: level in cellular extracts (rat primary hepatocytes; decay time 4 h) | Decay of Compound 7: level in cellular extracts (rat primary hepatocytes; decay time 8 h) | Decay of Compound 7: level in cellular extracts (rat primary hepatocytes; decay time 24 h) | Compound 7 levels after 24 hours without drug (rat primary hepatocytes; [4]) | reduction of Compound 7 levels after 24 hours without drug (rat primary hepatocytes; [4]) | Compound 7 levels at time zero (rat primary hepatocytes; rat hepatocytes, after 24 h with 10 μM [^14C]-Compound 1) | SMILES | In vitro metabolite profile in microsomes following incubation with Compound 1 (peak detection) [1] | % Residual Compound 1 (CYP2D6)
– | – | – | – | – | – | – | – | – | – | – | CC(C)(CO)C(=O)SCCOP(=O)(NCc1ccccc1)OC[C@H]1O[C@@H](n2cnc3c(=O)[nH]c(N)nc32)[C@](C)(O)[C@@H]1O (mixture of isomers) [Compound 1, 3-hydroxy-2,2-dimethyl-thiopropionic acid S-(2-{[(2R,3R,4R,5R)-5-(2-amino-6-oxo-1,6-dihydro-purin-9-yl)-3,4-dihydroxy-4-methyl-tetrahydro-furan-2-ylmethoxy]-benzylamino-phosphoryloxy}-ethyl) ester] | + | 102%
only detectable metabolite | – | – | – | – | – | – | – | – | – | – | C[C@@]1(O)[C@H](O)[C@@H](CO)O[C@H]1n1cnc2c(=O)[nH]c(N)nc21 [2′-C-methyl guanosine, 9-(2-C-methyl-β-D-ribofuranosyl)guanine, reference compound] | + | –
– | 6.61 h | 6.61 h | 932 pmol/million cells | 954 pmol/million cells | 811 pmol/million cells | 545 pmol/million cells | 83.0 pmol/million cells | 83 pmol/million cells | 91% | 932 pmol/million cells | C[C@@]1(O)[C@H](O)[C@@H](COP(=O)(O)OP(=O)(O)OP(=O)(O)O)O[C@H]1n1cnc2c(=O)[nH]c(N)nc21 [Compound 7, [(2R)-2-methyl-β-D-ribofuranosyl]guanine 5′-triphosphate] | – | –
